Reference: patent publication EP0187057A1, “2-Phenyl-isopropyl-allophanate, preparation and pharmaceutical application” (priority 1984, dated 1986)
Where two headings read alike, the source gives them in different places.

Columns and labels:
[1] = tested on: motricité spontanée de la souris; experiment: Spontaneous motor activity; type: in vivo
Description: (§1) On a donc étudié les effets dépresseurs que peuvent exercer des doses croissantes de SCS 289 sur : • - la motricité spontanée de la souris; • - sa curiosité, quantifiée par la méthode de la planche à trous; • - son agilité, évaluée par l'épreuve de la traction de Boissier et Simon; • - sa force musculaire, mesurée par l'épreuve des poids.
(§2) Les essais ont été pratiqués sur des groupes de 10 souris dont les performances motrices ont été mesurées à deux reprises : avant et une heure après traitement par le SCS 289 administré, par voie digestive à des doses allant de 10 à 200 mg/kg, actives vis-à-vis des convulsions pentétrazoliques et des crises psychomotrices. A noter que l'épreuve de la planche à trous utilisée pour chiffrer la curiosité des animaux (décompte du nombre de visites des trous) n'est pratiquée qu'une seule fois, le comportement explorateur des animaux traités étant alors comparé à celui des témoins.
(§3) Les résultats obtenus dans chaque groupe ont permis de calculer la DA50 capable de diminuer de 50 X les performances motrices initiales ou de diminuer de 50% la curiosité des souris traitées par rapport à celle des témoins.
(§4) Les expérimentations comportementales précédemment décrites ont été appliquées à des animaux recevant SCS 35 et SCS 289 aux doses de 10 et 25 mg/kg.

[2] = Spontaneous motor activity; type: in vivo, souris; conditions: mouse, in vivo, po; dose diminishing initial performance by 50 %; read-out: DA50 motricité
Description: as §1, §2, §3, §4

[3] = tested on: force musculaire de la souris; experiment: Weights test (muscular strength); type: in vivo
Description: as §1, §2, §3, §4

[4] = Weights test (muscular strength); type: in vivo, souris; conditions: mouse, in vivo, po; dose diminishing initial performance by 50 %; read-out: DA50 force musculaire
Description: as §1, §2, §3, §4

[5] = tested on: agilité de la souris; experiment: Traction test of Boissier and Simon (agility); type: in vivo
Description: as §1, §2, §3, §4

[6] = Traction test of Boissier and Simon (agility); type: in vivo, souris; conditions: mouse, in vivo, po; dose diminishing initial performance by 50 %; read-out: DA50 agilité
Description: as §1, §2, §3, §4

[7] = tested on: crises pentétrazoliques; experiment: Convulsant and lethal effects of subcutaneous pentetrazol (125 mg/kg); type: in vivo, souris
Description: Propriétés anticonvulsivantes : • On a effectué, pour déterminer ces propriétés anticonvulsivantes, des expérimentations sur le SCS 289 en procédant à des essais de protection : • - chez le lapin soumis à une transélectrification cranienne génératrice de crises épileptiformes de type "grand mal" ou recevant une infusion veineuse de pentétrazol provoquant l'apparition de myoclonies palpébrales; • - chez la souris recevant, par voie sous-cutanée des doses croissantes de pentétrazol entraînant convulsions et mort ou soumise à une transélectrification transcranienne à basse fréquence génératrice de crises psychomotrices.
Pour déceler une synergie d'action antagoniste vis-à-vis des effets convulsivants et létaux du pentétrazol injecté par voie sous-cutanée chez la souris à la dose de 125 mg/kg, on a déterminé avec plus de précision la DE50 du SCS 289 et on a recherché si l'association avec le SCS 35 apportait un surcroit appréciable d'activité.
On n'a retenu comme significative que la protection à l'égard des effets létaux observés sur 24 heures.

[8] = Acute toxicity by the digestive route, lethality after one week of observation; conditions: in vivo, po, rat; for mortality at 168 h: read-out: Pourcentage de létalité Rats
Procedure: Des doses croissantes de produit (SCS 289) ont été administrées, par voie digestive, sous forme de suspensions gommeuses, sous le volume de 0,50 ml/20 g de poids corporel chez la souris et 0,50 ml/100 g de poids corporel chez le rat (de 500 à 4000 mg/kg avec des intervalles de 500 mg/kg).
Les animaux ont été maintenus en observation pendant une semaine, tout d'abord dans le laboratoire (avec un chauffage d'appoint) jusqu'au réveil des animaux endormis, puis dans l'unité animale conditionnée et climatisée.
Le taux de mortalité relevé dans chaque lot de rats et de souris au terme de la semaine d'observation a été le suivant :
Les valeurs des DL50, calculées par la méthode de Miller et Tainter sont respectivement de : • - 2300 ± 102 m^g/k^g chez la souris; • - 2050 + 220 mg/kg chez le rat.

[9] = 10 mg/kg voie digestive, one hour after treatment

CC(C)OC(=O)N(C(N)=O)c1ccccc1 [SCS 289, phényl-2 allophanate d'isopropyle]
Propriétés déficitaires motrices sur la motricité (pourcentage de diminution des scores) [1, 9]: 0% | Propriétés déficitaires motrices sur la motricité (pourcentage de diminution des scores) ([1]; 25 mg/kg): 20% | Propriétés déficitaires motrices sur la motricité (pourcentage de diminution des scores) ([1]; 50 mg/kg): 25% | Propriétés déficitaires motrices sur la motricité (pourcentage de diminution des scores) ([1]; 75 mg/kg): 30% | Propriétés déficitaires motrices sur la motricité (pourcentage de diminution des scores) ([1]; 100 mg/kg): 50% | Propriétés déficitaires motrices sur la motricité (pourcentage de diminution des scores) ([1]; 150 mg/kg): 100% | Propriétés déficitaires motrices sur la motricité (pourcentage de diminution des scores) ([1]; 200 mg/kg): 100% | ED50 at 1 h [2]: 120 mg/kg | Propriétés déficitaires motrices sur la force musculaire (pourcentage de diminution des scores) [3, 9]: 3,8% | Propriétés déficitaires motrices sur la force musculaire (pourcentage de diminution des scores) ([3]; 25 mg/kg): 8,3% | Propriétés déficitaires motrices sur la force musculaire (pourcentage de diminution des scores) ([3]; 50 mg/kg): 33% | Propriétés déficitaires motrices sur la force musculaire (pourcentage de diminution des scores) ([3]; 75 mg/kg): 31,9% | Propriétés déficitaires motrices sur la force musculaire (pourcentage de diminution des scores) ([3]; 100 mg/kg): 80,4% | Propriétés déficitaires motrices sur la force musculaire (pourcentage de diminution des scores) ([3]; 150 mg/kg): 100% | Propriétés déficitaires motrices sur la force musculaire (pourcentage de diminution des scores) ([3]; 200 mg/kg): 100% | ED50 at 1 h [4]: 63 mg/kg | Propriétés déficitaires motrices sur l'agilité (pourcentage de diminution des scores) [5, 9]: 6,7% | Propriétés déficitaires motrices sur l'agilité (pourcentage de diminution des scores) ([5]; 25 mg/kg): 20% | Propriétés déficitaires motrices sur l'agilité (pourcentage de diminution des scores) ([5]; 50 mg/kg): 41,7% | Propriétés déficitaires motrices sur l'agilité (pourcentage de diminution des scores) ([5]; 75 mg/kg): 77,3% | Propriétés déficitaires motrices sur l'agilité (pourcentage de diminution des scores) ([5]; 100 mg/kg): 90% | Propriétés déficitaires motrices sur l'agilité (pourcentage de diminution des scores) ([5]; 150 mg/kg): 100% | Propriétés déficitaires motrices sur l'agilité (pourcentage de diminution des scores) ([5]; 200 mg/kg): 100% | ED50 at 1 h [6]: 42 mg/kg | % de protection vis-à-vis de la létalité pentétrazolique ([7]; 10 mg/kg): 20% | % de létalité en 24 h ([7]; 10 mg/kg 1 h avant pentétrazol 125 mg/kg s.c., untreated 100): 80% | % de protection vis-à-vis de la létalité pentétrazolique ([7]; 20 mg/kg): 70% | % de létalité en 24 h ([7]; 20 mg/kg 1 h avant pentétrazol): 30% | % de protection vis-à-vis de la létalité pentétrazolique ([7]; 30 mg/kg): 100% | % de létalité en 24 h ([7]; 30 mg/kg 1 h avant pentétrazol): 0% | % de protection vis-à-vis de la létalité pentétrazolique ([7]; 40 mg/kg): 100% | % de létalité en 24 h ([7]; 40 mg/kg 1 h avant pentétrazol): 0% | % de protection vis-à-vis de la létalité pentétrazolique ([7]; 50 mg/kg): 100% | % de létalité en 24 h ([7]; 50 mg/kg 1 h avant pentétrazol): 0% | ED50 ([7]; Mus musculus, sc, 24 h, souris, read-out: DE50 à l'égard des crises pentétrazoliques maximales et létales): 15 mg/kg | DL50/DE50 /pentétrazol ([7]; index thérapeutique absolu, souris): 153 | LD50 at 168 h ([8]; voie digestive, méthode de Miller et Tainter, read-out: DL50): 2050 mg/kg | mortality at 168 h ([8]; 500 mg/kg voie digestive): 0% | mortality at 168 h ([8]; 1000 mg/kg voie digestive): 15% | mortality at 168 h ([8]; 1500 mg/kg voie digestive): 30% | mortality at 168 h ([8]; 2000 mg/kg voie digestive): 55% | mortality at 168 h ([8]; 2500 mg/kg voie digestive): 60% | mortality at 168 h ([8]; 3000 mg/kg voie digestive): 65% | mortality at 168 h ([8]; 3500 mg/kg voie digestive): 80% | mortality at 168 h ([8]; 4000 mg/kg voie digestive): 100%
